Measured values reported in patent US8569267B2, “Tetracyclic tetrahydrofuran derivatives containing cyclic amine side chain” (Janssen Pharmaceutica, NV, priority 2005, dated 2013).

Columns and labels:
[1] = molecular target: T1, NET (norepinephrine transporter) (Rattus norvegicus, UniProt Q63380); assay: In vitro determination of NET reuptake inhibition ([3H]Nixosetine binding, rat brain cortex); settings: rat brain cortex; for IC50: read-out: NET pIC50 (converted)
T1 construct: Cortex from rat brain was collected and homogenised; from tissue; host or cells: rat brain cortex
Summary of the method: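 Competition curves and percentage specific binding came from scintillation counting of filter-trapped radioactivity. The membranes were rat cortical homogenate in pH 7.4 Tris buffer with 120 mM NaCl and 5 mM KCl. Test compounds competed with [3H]nisoxetine for binding.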

[2] = molecular target: T2, human cloned 5-HT2A receptor, expressed in L929 cells (Homo sapiens, UniProt P28223); assay: In vitro binding affinity for 5-HT2A receptor ([125I]R91150 radioligand binding); settings: human cloned 5-HT2A receptor in L929 cells, [125I]R91150; for IC50: read-out: 5-HT2A pIC50 (converted)
T2 construct: expressed in transfected cells; host or cells: L929 cells
Summary of the method: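 Competition radioligand binding to human cloned 5-HT2A receptor expressed in L929 cells, using [125I]R91150 with test compound at various concentrations. At equilibrium, receptor-bound radioactivity was separated from free and counted. Affinity reflects inhibition of radioligand binding.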

[3] = molecular target: T3, human cloned 5-HT2C receptor, expressed in CHO cells (Homo sapiens, UniProt P28335); assay: In vitro binding affinity for 5-HT2C receptor ([3H]mesulergine radioligand binding); settings: human cloned 5-HT2C receptor; for IC50: read-out: 5-HT2C pIC50 (converted)
T3 construct: expressed in transfected cells; host or cells: CHO cells
T3 sequence (P28335 33-458): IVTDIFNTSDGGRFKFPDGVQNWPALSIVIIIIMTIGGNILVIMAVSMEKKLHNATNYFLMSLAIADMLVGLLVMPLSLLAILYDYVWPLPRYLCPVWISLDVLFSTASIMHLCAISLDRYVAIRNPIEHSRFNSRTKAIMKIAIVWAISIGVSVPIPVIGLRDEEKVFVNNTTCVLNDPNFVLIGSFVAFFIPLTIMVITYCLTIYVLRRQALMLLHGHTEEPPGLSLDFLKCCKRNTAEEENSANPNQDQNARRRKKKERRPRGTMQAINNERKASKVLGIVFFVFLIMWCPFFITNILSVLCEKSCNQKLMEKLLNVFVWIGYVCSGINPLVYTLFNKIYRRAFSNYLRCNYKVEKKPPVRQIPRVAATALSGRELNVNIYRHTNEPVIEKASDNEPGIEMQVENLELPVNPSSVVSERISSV
Summary of the method: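 Receptor-bound radioligand counted after separation from unbound label once equilibrium is reached. Test compound added across a concentration range to tissue preparation plus radioligand; inhibition of binding reflects affinity and concentration.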

[4] = molecular target: T4, human Dopamine D2L receptor (Homo sapiens, UniProt P14416); assay: In vitro binding affinity for human D2L receptor ([3H]Spiperone binding); settings: human D2L receptor-transfected CHO cell membranes; for IC50: read-out: D2L pIC50 (converted)
T4 construct: expressed in transfected cells; host or cells: CHO cells
Summary of the method: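 Competition curves were expressed as percent specific binding, measured by scintillation counting after filtration onto GF/B filters and ice-cold Tris washes. Test compounds competed with [3H]Spiperone, added from a 2 nmol/L dilution, for 30 min at 37° C on transfected CHO membranes in pH 7.7 Tris-HCl salt buffer. Butaclamol at 10^−6 mol/l final marked non-specific binding.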

T2 sequence (P28223 whole entry): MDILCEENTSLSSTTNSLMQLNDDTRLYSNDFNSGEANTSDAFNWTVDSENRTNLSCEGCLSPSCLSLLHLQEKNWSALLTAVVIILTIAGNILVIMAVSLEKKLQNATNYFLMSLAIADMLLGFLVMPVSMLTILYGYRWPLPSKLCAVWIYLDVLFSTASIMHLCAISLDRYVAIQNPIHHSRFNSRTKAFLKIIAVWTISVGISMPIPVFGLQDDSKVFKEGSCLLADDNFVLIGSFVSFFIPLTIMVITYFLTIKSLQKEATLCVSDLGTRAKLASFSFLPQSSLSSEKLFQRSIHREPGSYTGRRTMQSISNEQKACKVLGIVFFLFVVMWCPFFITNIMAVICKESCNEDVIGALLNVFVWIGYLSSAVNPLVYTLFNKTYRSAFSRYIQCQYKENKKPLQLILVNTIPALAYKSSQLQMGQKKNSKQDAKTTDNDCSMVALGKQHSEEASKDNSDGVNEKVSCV
T1 sequence (Q63380 1-617): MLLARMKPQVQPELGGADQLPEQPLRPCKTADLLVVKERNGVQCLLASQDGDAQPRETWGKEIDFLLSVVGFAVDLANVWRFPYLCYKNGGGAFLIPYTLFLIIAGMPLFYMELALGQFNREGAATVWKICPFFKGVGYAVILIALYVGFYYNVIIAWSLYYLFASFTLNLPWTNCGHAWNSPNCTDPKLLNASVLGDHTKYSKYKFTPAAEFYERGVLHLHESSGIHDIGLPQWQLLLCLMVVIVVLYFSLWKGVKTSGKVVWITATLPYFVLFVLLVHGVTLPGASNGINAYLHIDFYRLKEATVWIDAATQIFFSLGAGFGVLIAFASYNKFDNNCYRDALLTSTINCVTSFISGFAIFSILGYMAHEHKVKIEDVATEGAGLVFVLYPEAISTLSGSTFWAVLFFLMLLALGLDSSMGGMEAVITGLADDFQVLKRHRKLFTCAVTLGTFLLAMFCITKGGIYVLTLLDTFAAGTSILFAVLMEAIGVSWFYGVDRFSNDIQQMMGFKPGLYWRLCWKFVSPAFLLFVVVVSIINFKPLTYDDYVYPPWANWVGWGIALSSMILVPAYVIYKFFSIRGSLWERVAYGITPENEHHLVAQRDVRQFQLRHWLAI
T4 sequence (P14416 whole entry): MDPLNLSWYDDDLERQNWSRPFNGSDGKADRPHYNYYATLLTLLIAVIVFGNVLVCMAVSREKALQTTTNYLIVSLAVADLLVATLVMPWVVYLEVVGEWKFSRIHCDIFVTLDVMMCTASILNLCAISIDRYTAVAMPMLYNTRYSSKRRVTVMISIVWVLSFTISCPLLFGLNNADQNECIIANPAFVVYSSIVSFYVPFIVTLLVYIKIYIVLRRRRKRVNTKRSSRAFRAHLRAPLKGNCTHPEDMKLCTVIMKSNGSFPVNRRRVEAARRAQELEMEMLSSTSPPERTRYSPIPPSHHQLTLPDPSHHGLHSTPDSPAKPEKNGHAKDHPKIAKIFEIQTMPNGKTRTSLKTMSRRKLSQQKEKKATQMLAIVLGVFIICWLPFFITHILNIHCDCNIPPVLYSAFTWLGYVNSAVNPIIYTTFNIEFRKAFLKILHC

SMILES	IC50 [1] [nM]	IC50 [2] [nM]	IC50 [3] [nM]	IC50 [4] [nM]	NET pIC50 [1]	5-HT2A pIC50 [2]	5-HT2C pIC50 [3]	D2L pIC50 [4]
N#Cc1ccc(C(=O)NC2CCN(CC3CC4c5ccccc5Cc5ccc(F)cc5C4O3)CC2)cc1 (stereo not shown) [Compound 236]	> 10000	1.51	9.55	6.76				
CCOC(=O)CNC(=O)NC1CCN(CC2CC3c4ccccc4Cc4ccc(F)cc4C3O2)CC1 (stereo not shown) [Compound 242]	2880	1.2	4.07	3.98				
Fc1ccc2c(c1)C1OC(CN3CCC(NC(=S)NCCN4CCOCC4)CC3)CC1c1ccccc1C2 (stereo not shown) [Compound 253]	1510	2.09	10.2	24.5				
Fc1ccc2c(c1)[C@@H]1O[C@@H](CN3CC=CC3)C[C@@H]1c1ccccc1C2.O=C(O)C(=O)O [Compound 266]					6.61	8.09	8.42	7.42
Fc1ccc2c(c1)[C@@H]1O[C@@H](CN3CCCNCC3)C[C@@H]1c1ccccc1C2.O=C(O)C(=O)O.O=C(O)C(=O)O [Compound 267]					5.10	7.84	7.65	6.81
O=C(O)C(=O)O.OCCN1CCCN(C[C@H]2C[C@@H]3c4ccccc4Cc4ccc(F)cc4[C@@H]3O2)CC1 [Compound 269]					5.15	8.25	8.14	7.83
N#CC1=CCN(C[C@H]2C[C@@H]3c4ccccc4Cc4ccc(F)cc4[C@@H]3O2)CC1.O=C(O)C(F)(F)F [Compound 270]					5.78	7.18	7.45	6.67
COCC1(O)CCN(C[C@H]2C[C@@H]3c4ccccc4Cc4ccc(F)cc4[C@@H]3O2)CC1 [Compound 272]	724	1.23	0.741	2.14				
CC(=O)C1(c2ccccc2)CCN(C[C@H]2C[C@@H]3c4ccccc4Cc4ccc(F)cc4[C@@H]3O2)CC1.O=C(O)C(=O)O [Compound 273]					<5	8.48	8.24	7.71
Fc1ccc2c(c1)[C@@H]1O[C@@H](CN3CCc4ccccc4C3)C[C@@H]1c1ccccc1C2.O=C(O)C(F)(F)F [Compound 275]					5.49	8.52	8.66	8.03
COc1cc2c(cc1OC)CN(C[C@H]1C[C@@H]3c4ccccc4Cc4ccc(F)cc4[C@@H]3O1)CC2 [Compound 276]	> 10000	1.02	1.15	17				
Fc1ccc2c(c1)[C@@H]1O[C@@H](CN3CCC4(CC3)OCCO4)C[C@@H]1c1ccccc1C2 [Compound 278]	> 10000	1.62	9.77	2.29				
CC(=O)OCCN1[C@H](C)CN(C[C@H]2C[C@@H]3c4ccccc4Cc4ccc(F)cc4[C@@H]3O2)C[C@@H]1C.O=C(O)C(=O)O [Compound 281]					<5	8.39	7.87	7.74
O=C(O)C(=O)O.OC1CCN(CC2CC3c4ccccc4Oc4ccc(Cl)cc4C3O2)CC1 (stereo not shown) [Compound 284]					<5	7.98	7.38	7.14
O=C(O)C(=O)O.OC1CCN(CC2CC3c4ccccc4Oc4ccc(Cl)cc4C3O2)CC1 (stereo not shown) [Compound 285]					<5	8.56	7.76	7.49
O=C(O)C(=O)O.OC1CCN(CC2CC3c4ccccc4Oc4ccc(Br)cc4C3O2)CC1 (stereo not shown) [Compound 286]					<5	8.33	7.81	7.50
